In patent publication US20120232062A1, “AZAINDAZOLES TO TREAT FLAVIVIRIDAE VIRUS INFECTION” (EIGER BIOPHARMACEUTICALS, INC., priority 2009, published 2012):
Like-named read-outs stand apart in the source and are kept apart here.

What was measured:
HCV genotype 1b = assay: HCV 1b replicon luciferase assay; format: cell-based; conditions: Table 1, Huh7 HCV 1b replicon, luciferase reporter, 48 hours, read-out: 1b EC50
Method in brief: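 Huh7 cells carrying a genotype 1b replicon with stable luciferase reporter, 10k cells/well, were treated 48 h at 37 °C with 10-point 5-fold dilutions from 25 μM (0.1% DMSO), in duplicate. Replication was read as Steady-Glo luminescence.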

[1] = Caco-2 permeability testing; format: in vitro ADME, human; conditions: human, 90 min; for Papp A→B at 90 min, 10 µM: read-out: Permeability (second figure of Efflux/permeability), Papp (A-B); for Papp B→A at 90 min, 10 µM: read-out: Efflux (first figure of Efflux/permeability), Papp (B-A)
From the text: Intestinal epithelium permeability is a critical characteristic that determines the rate and extent of human absorption and affects bioavailability of a drug candidate. Poor intestinal permeability leads to limited absorption. Generally, higher absorption is preferred. The Caco-2 cell line is a human colon adeno-carcinoma cell line that resembles the epithelial lining of the human small intestine. Several transport proteins that are expressed in human intestinal epithelium are also expressed in the Caco-2 cell model. Some transporter proteins are efflux systems which mediate the secretion of compounds from inside the cell back to the apical lumen (representative of the intestinal lumen), limiting overall absorption. In a permeability assay, the apparent permeability coefficient is measured between the apical to basolateral sides of a cell monolayer, Papp (A-B), and the basolateral to the apical side, Papp (B-A). Papp (A-B)<2×10^−6 cm/s is predictive of low permeability to the basolateral side, 2×10^−6 cm/s<Papp (A-B)<20×10^−6 cm/s is predictive of medium permeability, and Papp (A-B)>20×10^−6 cm/s is predictive of high permeability. In the B-A permeability assay, Papp (B-A) is measured and compounds evaluated for efflux potential. Together, these assay results are reported as a ratio of Papp (B-A) to Papp (A-B). Papp (B-A)/Papp (A-B)>3 are likely to be transported by one of the efflux systems, and have poor absorption. Papp (B-A)/Papp (A-B)<3 are likely to show reasonable intestinal absorption. An in vitro drug absorption assay suitable for use in predicting intestinal absorption of the compounds useful in the methods of the invention is described in this example. The embodiments of this assay described in this example were developed by Shanghai ChemPartner Co., Ltd., a corporation of China with its principal office located at 720 Cailun Road, Building No. 3, Shanghai 201203, China.
Caco-2 (ATCC, catalog No. HTB-37™) cells are cultured in growth medium (MEM+10% FBS+1% NEAA). The growth medium is prepared by adding 50 mL FBS and 5 mL NEAA to 445 mL of MEM or by adjusting the final volume according to actual needs. Trypsin-EDTA (Invitrogen, Cat #25200-072) is also used.
Hanks Balanced Salt Solution (HBSS, Invitrogen, Cat #14025-092) with 25 mM HEPES, pH 7.4, HBSS buffer with 0.2% DMSO (50 μL DMSO into 25 ml HBSS buffer), and HBSS buffer with 0.4% DMSO (100 μL DMSO into 25 ml HBSS buffer) are used.
10 mM stock solutions of a compound is prepared in DMSO and Lucifer Yellow in assay buffer using the formula (Actual Weight/Molecular Weight)/mL solvent=10 mM. Erythromycin, Metoprolol, and Atenolol are used as reference compounds. Donor solutions (10 μM for compounds and 5 μM for Lucifer Yellow) are prepared. For A-B, 4 μL of 10 mM compound stock solution and 2 μL of 10 mM Lucifer Yellow stock solution are loaded into 4 mL of HBSS buffer, and centrifuged (5 min, 4000 rpm) to precipitate undissolved particles. Supernatants are collected for compound dosing. For B-A, 4 μL (compounds) of 10 mM compound stock solution is added to 4 mL HBSS buffer with 0.2% DMSO, and centrifuged (5 min, 4000 rpm) to precipitate undissolved particles. Supernatants are collected for compound dosing.
Receiver solutions are prepared. For A-B, the solution is HBSS buffer with 0.4% DMSO. For B-A, 2 μL of 10 mM Lucifer Yellow stock solution is added to 4 mL of HBSS buffer with 0.2% DMSO. Compound solutions are prepared for standard curve (3 μM/1 μM/0.2 μM/0.04 μM/0.01 μM/0.005 μM):
1× solution: 3 μL of 20× solution (0.1-60 μM)+57 μL 0.4% DMSO HBSS+60 μL acetonitrile (ACN) with internal standard (IS, 200 ng/mL Osalmid). The assay was performed as described below
Stock cultures are maintained in MEM+10% FBS+1% NEAA, grown in 75 cm^2 tissue culture treated flasks and split (passed) 2 times weekly to maintain desired confluence. For maintenance passage, trypsinized cells are routinely distributed into new flasks at a standard passage ratio of 1:4. […]

[2] = Liver microsome stability, human; format: in vitro ADME
From the text: (§1) Metabolic stability assays are designed to measure the stability of a test compound in a variety of assay matrices from human and animal species. From a metabolism perspective, a drug would be relatively stable, have a small first-pass effect, and maintain an effective concentration in blood for a reasonable period of time. A microsomal preparation from the liver contains all CYP isozymes and other membrane-bound drug metabolizing enzymes which are responsible for the metabolism for the majority of drugs in humans. Metabolic stability in liver microsomes can determine half-life (T1/2) and intrinsic clearance (Clint). The determination of Clint may be useful to determine whether metabolism is the major elimination pathway when it is compared to total body clearance in vivo. For high metabolic stability in liver microsomes: […] Human, Sprague Dawley rat, and CD-1 mouse liver microsome samples were purchased from BD Gentest. An in vitro metabolic stability assay suitable for use in predicting first pass metabolism of the compounds useful in the methods of the invention is described in this example. […] 6 mM NADPH in 0.1 M K-phosphate buffer is prepared by dissolving 25.1 mg of NADPH tetrasodium salt in 5 mL of K-phosphate buffer. […] The plate is pre-incubated at 37° C. for 10 minutes. 15 μL of NADPH stock solution (6 mM) is added to the wells designated for Time 60 and timed. At 30 min, 15 min, and 5 min, 15 μL of NADPH stock solution (6 mM) is added to the wells. At the end of incubation, 135 μL of ACN containing IS is added to all the wells (60 min, 30 min, 15 min, 5 min and 0 min). Then 15 μL of NADPH stock solution (6 mM) is added to the wells designated as Time 0.

[3] = Liver microsome stability, rat; format: in vitro ADME, Sprague Dawley rat
From the text: as §1

[4] = Liver microsome stability, mouse; format: in vitro ADME, CD-1 mouse
From the text: as §1

| SMILES | EC50 (HCV genotype 1b; Hepatitis C virus, Huh-7, 48 h) | Papp A→B at 90 min, 10 µM ([1]; Caco-2, pH 7.4, Caco-2, A-B) | Papp B→A at 90 min, 10 µM ([1]; Caco-2, pH 7.4, Caco-2, B-A) | further results |
| --- | --- | --- | --- | --- |
| Cc1ccc(C(=O)Nc2nn(C)c3nc(N4CCCCCC4)ccc23)s1 [compound 841] | 1600 nM | 9.7 ×10⁻⁶ cm/s | 1.9 ×10⁻⁶ cm/s |  |
| O=C(NC1CCNCC1)c1nn(Cc2ccccc2Cl)c2nc(N3CCCCCC3)ccc12 [compound 853] | 2900 nM |  |  | Papp A→B at 90 min, 10 µM ([1]; pH 7.4, Caco-2, A-B): 0.4 ×10⁻⁶ cm/s; Papp B→A at 90 min, 10 µM ([1]; pH 7.4, Caco-2, B-A): 0.4 ×10⁻⁶ cm/s |
| Cn1nc(C(=O)NC2CCN(S(C)(=O)=O)CC2)c2ccc(N3CCCCCC3)nc21 [compound 1063] |  | 50 ×10⁻⁶ cm/s | 16 ×10⁻⁶ cm/s | EC50 (HCV genotype 1b): 3900 nM |
| Cn1nc(C(=O)NC2CCN(CC3CCOCC3)CC2)c2ccc(N3CCCCCC3)nc21 [compound 1072] | 2500 nM | 5.4 ×10⁻⁶ cm/s | 4.6 ×10⁻⁶ cm/s |  |
| CCC(CC)Oc1ccc2c(C(=O)NC3CCN(CC4CCCCC4)CC3)nn(C)c2n1 [compound 1074] | 880 nM | 6.6 ×10⁻⁶ cm/s | 1.6 ×10⁻⁶ cm/s |  |
| COc1ccc(CN2CCC(NC(=O)c3nn(C)c4nc(N5CCCCCC5)ccc34)CC2)cc1 [compound 1116] |  | 0.5 ×10⁻⁶ cm/s | 0.3 ×10⁻⁶ cm/s | EC50 (HCV genotype 1b): 1300 nM |
| Cn1nc(-c2cnc(C(=O)NCc3cccs3)s2)c2ccc(N3CCCCCC3)nc21 [compound 1129] | 830 nM | 6 ×10⁻⁶ cm/s | 4 ×10⁻⁶ cm/s |  |
| Cn1nc(C(=O)NCc2cccs2)c2cc(N3CCCCC3)cnc21 [compound 1146] | 7500 nM | 22 ×10⁻⁶ cm/s | 21 ×10⁻⁶ cm/s |  |
| Cn1nc(C(=O)NC2CCN(CC3CCCCC3)CC2)c2ccc(N3CCCCCCC3)cc21 [compound 1150] | 600 nM | 1.4 ×10⁻⁶ cm/s | 5.7 ×10⁻⁶ cm/s |  |
| Clc1ccc(Cn2nc(COCCN3CCCC3)c3ccc(N4CCCCCCC4)nc32)cc1 [compound 1203] | 3300 nM | 7.8 ×10⁻⁶ cm/s | 7.3 ×10⁻⁶ cm/s |  |
| CCN1CCC(NC(=O)c2nn(C)c3nc(N4CCCCCCC4)ccc23)CC1 [compound 1225] | 1200 nM | 6.4 ×10⁻⁶ cm/s | 3.2 ×10⁻⁶ cm/s |  |
| CN1CCC(NC(=O)c2nn(C)c3nc(N4CCCCCCC4)ccc23)CC1 [compound 1306] | 360 nM | 9.1 ×10⁻⁶ cm/s | 4.4 ×10⁻⁶ cm/s |  |
| CC(C)N1CCC(NC(=O)c2nn(C)c3nc(N4CCCCCCC4)ccc23)CC1 [compound 1307] | 1000 nM | 9.6 ×10⁻⁶ cm/s | 4.2 ×10⁻⁶ cm/s |  |
| CCCC(C)CN1CCC(NC(=O)c2nn(C)c3nc(N4CCCCCCC4)ccc23)CC1 (stereo not shown) [compound 1308] | 480 nM | 0.4 ×10⁻⁶ cm/s | 0.2 ×10⁻⁶ cm/s |  |
| Cn1nc(C(=O)NC2CCN(CCN3CCCCCC3)CC2)c2ccc(N3CCCCCCC3)nc21 [compound 1310] | 230 nM | 1.3 ×10⁻⁶ cm/s | 2.1 ×10⁻⁶ cm/s |  |
| CC1CCCCN1CCN1CCC(NC(=O)c2nn(C)c3nc(N4CCCCCC4)ccc23)CC1 (stereo not shown) [compound 1425] | 500 nM | 3 ×10⁻⁶ cm/s | 4 ×10⁻⁶ cm/s |  |
| CC1CCCN1CCCc1nn(C)c2nc(N3CCCCCCC3)ccc12 (stereo not shown) [compound 1452] | 1200 nM |  |  | human liver microsome (HLM, % parent remaining) ([2]; after 15 min): 32 % parent remaining; human liver microsome (HLM, % parent remaining) ([2]; after 30 min): 13 % parent remaining; human liver microsome (HLM, % parent remaining) ([2]; after 60 min): 3 % parent remaining; rat liver microsome (RLM), % parent remaining ([3]; after 15 min): 2 % parent remaining; rat liver microsome (RLM), % parent remaining ([3]; after 30 min): 0.8 % parent remaining; rat liver microsome (RLM), % parent remaining ([3]; after 60 min): 0.5 % parent remaining; mouse liver microsome (MLM), % parent remaining ([4]; after 15 min): 1.7 % parent remaining; mouse liver microsome (MLM), % parent remaining ([4]; after 30 min): 0.9 % parent remaining; mouse liver microsome (MLM), % parent remaining ([4]; after 60 min): 0.3 % parent remaining |
| Cn1nc(C(=O)NC2CCN(CCN3CCCC3)CC2)c2ccc(NC3CCCCCCC3)nc21 [compound 1469] | 250 nM | 0.9 ×10⁻⁶ cm/s | 2.9 ×10⁻⁶ cm/s |  |
| Cn1nc(C(=O)NC2CCN(CCN3CCOCC3)CC2)c2ccc(NC3CCCCCCC3)nc21 [compound 1471] | 870 nM | 10.9 ×10⁻⁶ cm/s | 9.6 ×10⁻⁶ cm/s |  |
| CCCN1CCC(NC(=O)c2nn(C)c3nc(NC4CCCCCCC4)ccc23)CC1 [compound 1475] | 830 nM | 5.9 ×10⁻⁶ cm/s | 6.3 ×10⁻⁶ cm/s |  |
| O=C(NC1CCN(CCN2CCCCC2)CC1)c1nn(CC(F)F)c2nc(N3CCCCCC3)ccc12 [compound 1488] | 640 nM | 3.3 ×10⁻⁶ cm/s | 3.5 ×10⁻⁶ cm/s |  |
| Cn1nc(C(=O)NC2CCN(CCN3CCC(CO)CC3)CC2)c2ccc(N3CCCCCC3)nc21 [compound 1560] | 860 nM | 2 ×10⁻⁶ cm/s | 13.1 ×10⁻⁶ cm/s |  |
| CC1CCC(C)N1CCN1CCC(NC(=O)c2nn(C)c3nc(N4CCCCCC4)ccc23)CC1 (stereo not shown) [compound 1562] | 1900 nM | 6.7 ×10⁻⁶ cm/s | 6.3 ×10⁻⁶ cm/s |  |
